The record followed here is US4812465A, “Triazole derivatives for use as antimycotic agents” (CL Pharma Aktiengesellschaft, priority 1986, dated 1989).

Test in all cases: In vitro determination of minimum inhibitory concentration (MIC), serial dilution
What all share (format): cell-based

One series deals with Mucor mucedo plus. To be noted: pH 6.0, 22° C., 14 days; for MIC: Mucor mucedo, 336 h, pH 6, Mucor mucedo plus. How it is done:
(§1) The antimycotic activities of the compounds were measured by in vitro determination of the minimum inhibitory concentration (MIC) for yeasts, molds and dermatophytes.
(§2) 6 dermatophytes, 2 yeasts and 4 molds were used for testing with fungi, as follows:
(§3) The minimum inhibitory concentration (MIC) was determined in serial dilution tests in test tubes. The volume of the liquid nutrient medium in each test tube was 4.5 ml.
(§4) The substances were dissolved in DMSO and diluted with sterile distilled water to 10 concentrations (100, 50, 25, 12.5, 6.25, 3.12, 1.56, 0.78, 0.39 and 0.19 μg/ml). 0.5 ml of each of these dilution steps was added to liquid nutrient medium. Thus, a constant concentration of solvent in all the nutrient media was ensured, irrespective of the active compound concentration.
(§5) A comparison solution which contained only the solvent in appropriate concentration was included when carrying out each of the tests.
(§6) The individual strains were maintained on Sabouraud/beerwort agar slants and, before they were used in a test, they underwent a passage on a modified Sabouraud liquid nutrient medium. The strains were then harvested, washed and converted into a suspension of McFaerland 3 in the case of yeasts and molds and of McFaerland 4-5 in the case of dermatophytes.
(§7) The amount of material inoculated (inoculum) was 100 μl/test tube (inoculated densities: yeasts about 10^3 /ml, molds about 10^4 /ml, dermatophytes about 10^4 /ml). The pH of the liquid nutrient medium was 6.0. After inoculation had taken place the fungi were incubated at 22° C. for 14 days.
(§8) The MIC was then determined. The concentration step at which growth was no longer visible on macroscopic inspection was used for the determination of the MIC. The comparison substance used was 1-(2-(2,4-dichlorophenyl)-2-(2,4-dichlorophenylmethoxy)ethyl)-1H-imidazole(compound A).

A further series deals with Aspergillus fumigatus. The protocol: as §1, §2, §3, §4, §5, §6, §7, §8
The subject of a further series is Absidia ramosa. The note with it: pH 6.0, 22° C., 14 days; for MIC: Lichtheimia ramosa, 336 h, pH 6, Absidia ramosa. How it is done:
as §1, §2, §3, §4, §5, §6, §7, §8

The next series deals with Microsporum gypseum. To be noted: for MIC: Nannizzia gypsea, 336 h. How it is done: as §1, §2, §3, §4, §5, §6, §7, §8
In a further series the test system is Candida albicans. The note with it: for MIC: 336 h. The protocol: as §1, §2, §3, §4, §5, §6, §7, §8
For series [1], the system named is Trichophyton mentagrophytes. The note with it: pH 6.0, 22° C., 14 days; for MIC: 336 h, pH 6, Trichophyton mentagrophytes. The protocol: as §1, §2, §3, §4, §5, §6, §7, §8
A further series has as its system Candida tropicalis. The note with it: 336 h. The protocol:
as §1, §2, §3, §4, §5, §6, §7, §8

The next series deals with Trichophyton rubrum. To be noted: pH 6.0, 22° C., 14 days; for MIC: 336 h, pH 6, Trichophyton rubrum. How it is done:
as §1, §2, §3, §4, §5, §6, §7, §8

The test system of the next series is Epidermophyton floccosum. The note with it: pH 6.0, 22° C., 14 days; for MIC: 336 h, pH 6, Epidermophyton floccosum. How it is done: as §1, §2, §3, §4, §5, §6, §7, §8
Another series relates to Microsporum canis. To be noted: 336 h, pH 6, Microsporum canis, pH 6.0, 22° C., 14 days. The protocol: as §1, §2, §3, §4, §5, §6, §7, §8
The next series relates to Trichophyton verrucosum. To be noted: pH 6.0, 22° C., 14 days; for MIC: 336 h, pH 6, Trichophyton verrucosum. The protocol: as §1, §2, §3, §4, §5, §6, §7, §8
The test system of the next series is Mucor mucedo minus. To be noted: pH 6.0, 22° C., 14 days; for MIC: Mucor mucedo, 336 h, pH 6, Mucor mucedo minus. The protocol: as §1, §2, §3, §4, §5, §6, §7, §8
The mark [2] stands for this setting: pH 6, Microsporum gypseum, pH 6.0, 22° C., 14 days, read-out: MIC Mi.gyp.
Where [3] appears, read: pH 6, Candida albicans, pH 6.0, 22° C., 14 days, read-out: MIC C.alb.
Setting [4] is: pH 6, Candida tropicalis, pH 6.0, 22° C., 14 days, read-out: MIC C.trop.

≈ marks a conversion by molar mass, not a printed value. Where two headings read alike, the source gives them in different places.

In the case of `Clc1ccc(COC(Cn2ccnc2)c2ccc(Cl)cc2Cl)c(Cl)c1` (stereo not shown) [A, 1-(2-(2,4-dichlorophenyl)-2-(2,4-dichlorophenylmethoxy)ethyl)-1H-imidazole, reference compound], the minimum inhibitory concentration (MIC) turned out to be 12.5 µg/mL with Mucor mucedo plus; 12.5 µg/mL (≈ 30 µM) in the series with Absidia ramosa; 3.12 µg/mL (≈ 7.5 µM) in the series with Microsporum gypseum (pH 6, read-out: MIC Mi.gyp); 12.5 µg/mL (≈ 30 µM) with Candida albicans (pH 6, read-out: MIC C.alb); 1.56 µg/mL (≈ 3.75 µM) in [1]; 12.5 µg/mL (≈ 30 µM) with Candida tropicalis (pH 6, read-out: MIC C.trop). Also, the MIC in the series with Trichophyton rubrum turned out to be 6.25 µg/mL (≈ 15 µM); with Epidermophyton floccosum it was 1.56 µg/mL (≈ 3.75 µM); against Microsporum canis, 6.25 µg/mL (≈ 15 µM); against Trichophyton verrucosum, 6.25 µg/mL (≈ 15 µM); in the series on Mucor mucedo minus, 12.5 µg/mL (≈ 30 µM). The “MIC Asp.fu.” value with Aspergillus fumigatus (Aspergillus fumigatus, pH 6.0, 22° C., 14 days) is on record as 3,12 μg/ml.

`Clc1ccc(C(Cn2ccnc2)NCCCSc2ccc(Br)cc2)c(Cl)c1` (stereo not shown) [Compound 1, 1-(2-(2,4-Dichlorophenyl)-2-(3-(4-bromophenylthio)propylamino)ethyl)-1H-imidazole]: the “MIC Mu.mu+” value with Mucor mucedo plus (Mucor mucedo plus) was 6,25 μg/ml. Also, in the series with Aspergillus fumigatus (20160 min, pH 6), the “MIC Asp.fu.” value is 1,56 μg/ml. The “MIC Abs.ra.” value in the series on Absidia ramosa (Absidia ramosa) is listed as 3,12 μg/ml. Also, the “MIC Mi.gyp” value with Microsporum gypseum (Microsporum gypseum, pH 6.0, 22° C., 14 days) is 0,39 μg/ml. Moreover, in the series with Candida albicans (pH 6.0, 22° C., 14 days), the “MIC C.alb” value is recorded as 3,12 μg/ml. The “MIC Tri.me.” value in series [1] is on record as 0,39 μg/ml. Moreover, the “MIC Tri.ru.” value against Trichophyton rubrum was 0,39 μg/ml. The “MIC Ep.flo” value against Epidermophyton floccosum is given as 0,78 μg/ml. In addition, in the series on Trichophyton verrucosum, the “MIC Tri.ve.” value is 0,30 μg/ml. Further, in the series with Mucor mucedo minus (Mucor mucedo minus), the “MIC Mu.mu-” value was 6,25 μg/ml.

Take `Clc1ccc(SCCCNC(Cn2ccnc2)c2ccc(Cl)cc2Cl)cc1` (stereo not shown) [Compound 2, 1-(2-(2,4-dichlorophenyl)-2-(3-(4-chlorophenylthio)propylamino)ethyl)-1H-imidazole]: the MIC with Mucor mucedo plus was 12.5 µg/mL; with Absidia ramosa, 3.12 µg/mL (≈ 7.08 µM); in the series on Microsporum gypseum (setting [2]), 3.12 µg/mL (≈ 7.08 µM); with Candida albicans (setting [3]), 3.12 µg/mL (≈ 7.08 µM); in series [1], 12.5 µg/mL (≈ 28.4 µM); in the series on Candida tropicalis (setting [4]), 1.56 µg/mL (≈ 3.54 µM). In addition, the MIC was 0.19 µg/mL (≈ 0.431 µM) against Trichophyton rubrum; 6.25 µg/mL (≈ 14.2 µM) in the series on Epidermophyton floccosum; 1.56 µg/mL (≈ 3.54 µM) against Microsporum canis; 0.39 µg/mL (≈ 0.885 µM) in the series on Trichophyton verrucosum; 25 µg/mL (≈ 56.7 µM) against Mucor mucedo minus. Besides, the “MIC Asp.fu.” value in the series with Aspergillus fumigatus (20160 min, pH 6) was 3,12 μg/ml.

Consider `CN(CCCSCc1ccc(Cl)cc1)C(Cn1ccnc1)c1ccc(Cl)cc1Cl` (stereo not shown) [Compound 3, 1-(2-(2,4-Dichlorophenyl)-2-(N-methyl-3-(4-chlorobenzylthio)propylamino)ethyl)-1H-imidazole], for which the MIC in the series on Mucor mucedo plus was found to be 6.25 µg/mL; in the series with Absidia ramosa, 50 µg/mL (≈ 107 µM); in the series with Microsporum gypseum (setting [2]) it was 6.25 µg/mL (≈ 13.3 µM); in the series on Candida albicans (setting [3]), 3.12 µg/mL (≈ 6.65 µM); in [1], 6.25 µg/mL (≈ 13.3 µM); in the series with Candida tropicalis (setting [4]), 0.78 µg/mL (≈ 1.66 µM). Besides, the MIC came to 6.25 µg/mL (≈ 13.3 µM) in the series with Trichophyton rubrum; 1.56 µg/mL (≈ 3.33 µM) against Epidermophyton floccosum; 1.56 µg/mL (≈ 3.33 µM) in the series on Microsporum canis; 6.25 µg/mL (≈ 13.3 µM) in the series with Trichophyton verrucosum; 6.25 µg/mL (≈ 13.3 µM) against Mucor mucedo minus. In addition, in the series on Aspergillus fumigatus (20160 min, pH 6), the “MIC Asp.fu.” value is recorded as 25,0 μg/ml.

In the case of `Clc1ccc(OCCNC(Cn2cncn2)c2ccc(Cl)cc2Cl)cc1` (stereo not shown) [Compound 14], the MIC with Mucor mucedo plus was found to be 12.5 µg/mL; with Absidia ramosa, 100 µg/mL (≈ 243 µM); in the series on Microsporum gypseum (setting [2]) it was 6.25 µg/mL (≈ 15.2 µM); with Candida albicans (setting [3]), 12.5 µg/mL (≈ 30.4 µM); in series [1] it was 12.5 µg/mL (≈ 30.4 µM); in the series with Candida tropicalis (setting [4]) it was 12.5 µg/mL (≈ 30.4 µM). For the same molecule, the MIC in the series with Trichophyton rubrum was 6.25 µg/mL (≈ 15.2 µM); in the series on Epidermophyton floccosum it was 3.12 µg/mL (≈ 7.58 µM); in the series with Microsporum canis, 12.5 µg/mL (≈ 30.4 µM); in the series with Trichophyton verrucosum it was 12.5 µg/mL (≈ 30.4 µM); against Mucor mucedo minus, 6.25 µg/mL (≈ 15.2 µM). Besides, in the series with Aspergillus fumigatus (20160 min, pH 6), the “MIC Asp.fu.” value turned out to be 100 µg/mL (≈ 243 µM).

For `Clc1ccc(SCCNC(Cn2cncn2)c2ccc(Cl)cc2Cl)cc1` (stereo not shown) [Compound 33], the MIC in the series with Mucor mucedo plus is 6.25 µg/mL; against Absidia ramosa it was 25 µg/mL (≈ 58.4 µM); with Microsporum gypseum (setting [2]), 6.25 µg/mL (≈ 14.6 µM); in the series on Candida albicans (setting [3]), 12.5 µg/mL (≈ 29.2 µM); in series [1], 25 µg/mL (≈ 58.4 µM); with Candida tropicalis (setting [4]), 6.25 µg/mL (≈ 14.6 µM). Moreover, the MIC came out at 3.12 µg/mL (≈ 7.29 µM) against Trichophyton rubrum; 3.12 µg/mL (≈ 7.29 µM) with Epidermophyton floccosum; 6.25 µg/mL (≈ 14.6 µM) against Microsporum canis; 3.12 µg/mL (≈ 7.29 µM) with Trichophyton verrucosum; 3.12 µg/mL (≈ 7.29 µM) against Mucor mucedo minus. Also, the “MIC Asp.fu.” value against Aspergillus fumigatus (20160 min, pH 6) is given as 25,0 μg/ml.

One may read the MIC as the least concentration at which growth counts as inhibited.
